Laboratory results published in paper PMC11178787, “Development of a natural product optimization strategy for inhibitors against MraY, a promising antibacterial target” (Nature Communications, 2024).
In brackets after ≈: the same amount, converted by molar mass. Read-outs that look alike come from different tables or passages of the source.

What was measured:
Assay in all cases: microbe, parasite or virus in culture
E. faecium ATCC 35667 = tested on: T1, E. faecium ATCC 35667; design: CLSI broth microdilution MIC in MHB-II, single trial; conditions: Enterococcus faecium, ATCC35667, 18 h
T1 construct: ATCC 35667
Description: (§1) MICs were determined by a microdilution broth method as recommended by the CLSI with MHB-II. For MICs of stable analogues, a 2-fold dilution of each compound was prepared in DMSO at 100-fold of the final concentration. The strains were inoculated with 5 × 10^5 cfu/mL in 96-well plates (each 100 μL/well), and 1 μL of DMSO solutions of the samples were added (contained less than 1% DMSO). The plates were incubated at 37 °C for 18 h and then MICs were determined. MICs of stable analogues in Table 1 were the highest value in three trials. MICs in Supplementary Table 1 were determined in one trial.

[1] = tested on: T2, Staphylococcus aureus MRSA JE2; design: CLSI broth microdilution MIC in MHB-II, single trial; conditions: 18 h
T2 construct: JE2 (MRSA)
Description: as §1

[2] = tested on: T3, E. faecalis(VRE) ATCC 51299; design: CLSI broth microdilution MIC in MHB-II, single trial; conditions: Enterococcus faecalis, 18 h
T3 construct: ATCC 51299 (VRE)
Description: as §1

S. aureus ATCC 29213 = tested on: T4, S. aureus ATCC 29213; design: CLSI broth microdilution MIC in MHB-II, single trial; conditions: Staphylococcus aureus, ATCC29213, 18 h
T4 construct: ATCC 29213
Description: as §1

[3] = tested on: T5, E. faecium(VRE) ATCC 51559; design: CLSI broth microdilution MIC in MHB-II, single trial; conditions: Enterococcus faecium, 18 h
T5 construct: ATCC 51559 (VRE)
Description: as §1

[4] = tested on: T6, E. faecium(VRE) ATCC 51858; design: CLSI broth microdilution MIC in MHB-II, single trial; conditions: Enterococcus faecium, 18 h
T6 construct: ATCC 51858 (VRE)
Description: as §1

Enterococcus faecalis 24 = tested on: T7, Enterococcus faecalis 24; design: CLSI broth microdilution MIC in MHB-II; conditions: Enterococcus faecalis, 24, 18 h, read-out: MIC
T7 construct: 24
Description: as §1

Enterococcus faecium 2 = tested on: Enterococcus faecium 2; design: CLSI broth microdilution MIC in MHB-II; conditions: Enterococcus faecium, 2, 18 h, read-out: MIC
Description: as §1

Enterococcus faecalis 30 = tested on: T8, Enterococcus faecalis 30; design: CLSI broth microdilution MIC in MHB-II; conditions: Enterococcus faecalis, 30, 18 h, read-out: MIC
T8 construct: 30
Description: as §1

[5] = tested on: T9, Staphylococcus aureus #2110; design: CLSI broth microdilution MIC in MHB-II; conditions: Staphylococcus aureus, 18 h, read-out: MIC
T9 construct: #2110
Description: as §1

Enterococcus faecalis 29 = tested on: T10, Enterococcus faecalis 29; design: CLSI broth microdilution MIC in MHB-II; conditions: Enterococcus faecalis, 29, 18 h, read-out: MIC
T10 construct: 29
Description: as §1

Enterococcus faecalis 25 = tested on: T11, Enterococcus faecalis 25; design: CLSI broth microdilution MIC in MHB-II; conditions: Enterococcus faecalis, 25, 18 h, read-out: MIC
T11 construct: 25
Description: as §1

[6] = tested on: T12, Staphylococcus aureus #2935; design: CLSI broth microdilution MIC in MHB-II; conditions: Staphylococcus aureus, 18 h, read-out: MIC
T12 construct: #2935
Description: as §1

SMILES	MIC (Enterococcus faecalis 24) [µg/mL]	MIC (Enterococcus faecium 2) [µg/mL]	MIC (Enterococcus faecalis 30) [µg/mL]	MIC [5] [µg/mL]	MIC (Enterococcus faecalis 29) [µg/mL]	MIC (Enterococcus faecalis 25) [µg/mL]	MIC [6] [µg/mL]	further results
CCCCCCCCCCCCCCCC(=O)N[C@@H](CCCCN)C(=O)NCc1cccc(CN[C@H](C(=O)O)[C@H](O[C@@H]2O[C@H](CN)[C@@H](O)[C@H]2O)[C@H]2O[C@@H](n3ccc(=O)[nH]c3=O)[C@H](O)[C@@H]2O)c1 [compound 2, analogue 2]	0.25 (≈ 0.268 µM)	1 (≈ 1.07 µM)	0.25 (≈ 0.268 µM)	2 (≈ 2.14 µM)	0.13 (≈ 0.139 µM)	0.25 (≈ 0.268 µM)	1 (≈ 1.07 µM)	MIC (E. faecium ATCC 35667; read-out: 2 MIC): 0.5 µg/mL (≈ 0.535 µM); MIC ([1]; read-out: 2 MIC): 1 µg/mL (≈ 1.07 µM); MIC ([2]; read-out: 2 MIC): 0.5 µg/mL (≈ 0.535 µM); MIC (S. aureus ATCC 29213; read-out: 2 MIC): 1 µg/mL (≈ 1.07 µM); MIC ([3]; read-out: 2 MIC): 0.5 µg/mL (≈ 0.535 µM); MIC ([4]; read-out: 2 MIC): 2 µg/mL (≈ 2.14 µM)
CCCCCCCCCCCCCCCC(=O)N[C@@H](CCCNC(=N)N)C(=O)NCc1ccc(CN[C@H](C(=O)O)[C@H](O[C@@H]2O[C@H](CN)[C@@H](O)[C@H]2O)[C@H]2O[C@@H](n3ccc(=O)[nH]c3=O)[C@H](O)[C@@H]2O)cc1 [compound 3, analogue 3]	0.13 (≈ 0.135 µM)	1 (≈ 1.04 µM)	0.25 (≈ 0.26 µM)	2 (≈ 2.08 µM)	0.25 (≈ 0.26 µM)	0.13 (≈ 0.135 µM)	–	MIC (E. faecium ATCC 35667; read-out: 3 MIC): 1 µg/mL (≈ 1.04 µM); MIC ([1]; read-out: 3 MIC): 1 µg/mL (≈ 1.04 µM); MIC ([2]; read-out: 3 MIC): 0.5 µg/mL (≈ 0.52 µM); MIC (S. aureus ATCC 29213; read-out: 3 MIC): 1 µg/mL (≈ 1.04 µM); MIC ([3]; read-out: 3 MIC): 0.5 µg/mL (≈ 0.52 µM); MIC ([4]; read-out: 3 MIC): 2 µg/mL (≈ 2.08 µM)
CCCCCCCCCCCCCCCC(=O)N[C@@H](CCCNC(=N)N)C(=O)NCc1cccc(CN[C@H](C(=O)O)[C@H](O[C@@H]2O[C@H](CN)[C@@H](O)[C@H]2O)[C@H]2O[C@@H](n3ccc(=O)[nH]c3=O)[C@H](O)[C@@H]2O)c1 [compound 4, analogue 4]	0.13 (≈ 0.135 µM)	2 (≈ 2.08 µM)	0.25 (≈ 0.26 µM)	4 (≈ 4.16 µM)	< 0.06	0.25 (≈ 0.26 µM)	2 (≈ 2.08 µM)	MIC (E. faecium ATCC 35667; read-out: 4 MIC): 0.5 µg/mL (≈ 0.52 µM); MIC ([1]; read-out: 4 MIC): 2 µg/mL (≈ 2.08 µM); MIC ([2]; read-out: 4 MIC): 0.25 µg/mL (≈ 0.26 µM); MIC (S. aureus ATCC 29213; read-out: 4 MIC): 1 µg/mL (≈ 1.04 µM); MIC ([3]; read-out: 4 MIC): 1 µg/mL (≈ 1.04 µM); MIC ([4]; read-out: 4 MIC): 2 µg/mL (≈ 2.08 µM)
CCCCCCCCCCCCCCCC(=O)N[C@@H](CCCCN)C(=O)Nc1ccc(CN[C@H](C(=O)O)[C@H](O[C@@H]2O[C@H](CN)[C@@H](O)[C@H]2O)[C@H]2O[C@@H](n3ccc(=O)[nH]c3=O)[C@H](O)[C@@H]2O)cc1 [compound 5, analogue 5]	0.25 (≈ 0.272 µM)	0.5 (≈ 0.543 µM)	0.13 (≈ 0.141 µM)	1 (≈ 1.09 µM)	< 0.06	0.25 (≈ 0.272 µM)	1 (≈ 1.09 µM)	MIC (E. faecium ATCC 35667; read-out: 5 MIC): 0.25 µg/mL (≈ 0.272 µM); MIC ([1]; read-out: 5 MIC): 1 µg/mL (≈ 1.09 µM); MIC ([2]; read-out: 5 MIC): 0.25 µg/mL (≈ 0.272 µM); MIC (S. aureus ATCC 29213; read-out: 5 MIC): 0.5 µg/mL (≈ 0.543 µM); MIC ([3]; read-out: 5 MIC): 0.25 µg/mL (≈ 0.272 µM); MIC ([4]; read-out: 5 MIC): 1 µg/mL (≈ 1.09 µM)
CCCCCCCCCCCCCCCC(=O)N[C@@H](CCCCN)C(=O)Nc1cccc(CN[C@H](C(=O)O)[C@H](O[C@@H]2O[C@H](CN)[C@@H](O)[C@H]2O)[C@H]2O[C@@H](n3ccc(=O)[nH]c3=O)[C@H](O)[C@@H]2O)c1 [compound 6, analogue 6]	0.5 (≈ 0.543 µM)	1 (≈ 1.09 µM)	0.5 (≈ 0.543 µM)	2 (≈ 2.17 µM)	0.25 (≈ 0.272 µM)	0.5 (≈ 0.543 µM)	1 (≈ 1.09 µM)	MIC (E. faecium ATCC 35667; read-out: 6 MIC): 0.5 µg/mL (≈ 0.543 µM); MIC ([1]; read-out: 6 MIC): 1 µg/mL (≈ 1.09 µM); MIC ([2]; read-out: 6 MIC): 0.5 µg/mL (≈ 0.543 µM); MIC (S. aureus ATCC 29213; read-out: 6 MIC): 1 µg/mL (≈ 1.09 µM); MIC ([3]; read-out: 6 MIC): 1 µg/mL (≈ 1.09 µM); MIC ([4]; read-out: 6 MIC): 2 µg/mL (≈ 2.17 µM)
CCCCCCCCCCCCCCCC(=O)N[C@@H](CCCNC(=N)N)C(=O)Nc1ccc(CN[C@H](C(=O)O)[C@H](O[C@@H]2O[C@H](CN)[C@@H](O)[C@H]2O)[C@H]2O[C@@H](n3ccc(=O)[nH]c3=O)[C@H](O)[C@@H]2O)cc1 [compound 7, analogue 7]	0.13 (≈ 0.137 µM)	0.5 (≈ 0.527 µM)	0.25 (≈ 0.264 µM)	2 (≈ 2.11 µM)	< 0.06	0.25 (≈ 0.264 µM)	–	MIC (E. faecium ATCC 35667; read-out: 7 MIC): 0.5 µg/mL (≈ 0.527 µM); MIC ([1]; read-out: 7 MIC): 1 µg/mL (≈ 1.05 µM); MIC ([2]; read-out: 7 MIC): 0.5 µg/mL (≈ 0.527 µM); MIC (S. aureus ATCC 29213; read-out: 7 MIC): 1 µg/mL (≈ 1.05 µM); MIC ([3]; read-out: 7 MIC): 0.5 µg/mL (≈ 0.527 µM); MIC ([4]; read-out: 7 MIC): 2 µg/mL (≈ 2.11 µM)
CCCCCCCCCCCCCCCC(=O)N[C@@H](CCCNC(=N)N)C(=O)Nc1cccc(CN[C@H](C(=O)O)[C@H](O[C@@H]2O[C@H](CN)[C@@H](O)[C@H]2O)[C@H]2O[C@@H](n3ccc(=O)[nH]c3=O)[C@H](O)[C@@H]2O)c1 [compound 8, analogue 8]	1 (≈ 1.05 µM)	2 (≈ 2.11 µM)	0.5 (≈ 0.527 µM)	2 (≈ 2.11 µM)	0.13 (≈ 0.137 µM)	0.5 (≈ 0.527 µM)	2 (≈ 2.11 µM)	MIC (E. faecium ATCC 35667; read-out: 8 MIC): 0.5 µg/mL (≈ 0.527 µM); MIC ([1]; read-out: 8 MIC): 2 µg/mL (≈ 2.11 µM); MIC ([2]; read-out: 8 MIC): 1 µg/mL (≈ 1.05 µM); MIC (S. aureus ATCC 29213; read-out: 8 MIC): 1 µg/mL (≈ 1.05 µM); MIC ([3]; read-out: 8 MIC): 1 µg/mL (≈ 1.05 µM); MIC ([4]; read-out: 8 MIC): 2 µg/mL (≈ 2.11 µM)
C[C@H]1COc2c(N3CCN(C)CC3)c(F)cc3c(=O)c(C(=O)O)cn1c23 [levofloxacin]	1 (≈ 2.77 µM)	> 32	1 (≈ 2.77 µM)	> 32	0.5 (≈ 1.38 µM)	0.5 (≈ 1.38 µM)	> 32	MIC (E. faecium ATCC 35667; read-out: levofloxacin MIC): 4 µg/mL (≈ 11.1 µM); MIC ([1]; read-out: levofloxacin MIC): 8 µg/mL (≈ 22.1 µM); MIC ([2]; read-out: levofloxacin MIC): 1 µg/mL (≈ 2.77 µM); MIC (S. aureus ATCC 29213; read-out: levofloxacin MIC): 0.13 µg/mL (≈ 0.36 µM); MIC ([3]; read-out: levofloxacin MIC): 16 µg/mL (≈ 44.3 µM); MIC ([4]; read-out: levofloxacin MIC): 4 µg/mL (≈ 11.1 µM)
